The text below walks through data of patent US6844182B2, “Mutants which produce a potentiator of bacillus pesticidal activity” (priority 1992, dated 2005).

Where two headings read alike, the source gives them in different places.

One data set has as its system Spodoptera exigua. It counts as in vivo. Details: key to Stunt Score: 4.0 = untreated control; 3.0 = 75% size of untreated control; 2.0 = 50% size of untreated control; 1.0 = 25% size of untreated control; 0.0 = no growth or size unchanged from start of experiment. Here is the method: Activity is monitored by a Spodoptera exigua micro-bioassay, and purity is determined by capillary electrophoresis. […] The trays containing the various samples are air dried. Two to four 2nd or early 3rd instar Spodoptera exigua are added to the wells containing the dried sample. The wells are sealed with mylar poked with holes and are incubated for 2-3 days at 30° C. Degree of stunting and percent mortality are then recorded. Typically, 5 replicate wells are run for each sample.

The next data set is described as follows: Solubility of Ia. It counts as physicochemical. An excerpt: The active compound is found to be water soluble but is not soluble in organic solvents. […] A DEPT experiment determined that there are three quaternary carbons (C), seven methines (CH), three methylenes (CH2) and no methyl groups (CH3). Using proton coupling experiments such as 1-D decoupling and COSY, one large spin system containing eight carbons is identified. In addition, a smaller spin system consisting of two carbons is present. A carbon proton correlation experiment (HMBC) enabled assignment of each proton resonance in the molecule to its attached carbon.

The subject of a further data set is Alternaria alternata. In words: Fungal growth inhibition assay, Alternaria alternata. It counts as cell-based. Here is the method: (§1) Mutants of the Bacillus thuringiensis subsp. kurstaki strain which produce the factor are identified using fungal agar plates of Septoria nodorum and Alternaria alternata.
(§2) The two fungi are grown on PDA (potato dextrose agar) plates at 26° C. for 10-14 days until sufficient sporulation is obtained. Alternaria alternata is incubated in alternating UV light and darkness (12 hrs. each). The spores are removed from the plates and suspended in sterile water. Septoria nodorum spores are filtered through a sterile G1 filter. The Alternaria alternata spore concentration is adjusted to approximately 2×10^5 per ml and the Septoria nodorum spore concentration is adjusted to approximately 2×10^6 per ml using a Burker-Turk or Fuchs-Rosenthal counter. Samples of 1.5 ml of the spore suspension are then mixed with 1.5 ml of sterile 40% glycerol in water, frozen for 1 day at −20° C. and thereafter stored at −80° C. until use.
(§3) Test plates for the factor are prepared by mixing at 46° C. a 1.5 ml spore sample (as described above) with 115 ml of antibiotic agar medium No. 2 (25.5 g per liter) comprising streptomycin at a final concentration of 100 μg per ml, and transferring the mixture to sterile plastic trays (Nunc No. 101875). After the agar has solidified, […] holes are punched into the agar (120 holes per tray).
(§4) Samples of a culture are serially diluted in 100 μg of streptomycn per ml of sterile water and 10 μl of the diluted samples are dispensed into the trays prepared as described above. The trays are incubated at 26° C. for 2 days. Dilutions of the factor are also run as a positive control.
(§5) The sensitivity of the fungal growth inhibition assay is in the range of 0.05 gram of the factor per liter (barely visible) and 0.1 gram of the factor per liter (clear zone) for both fungi.

The test system of the next data set is Septoria nodorum. In words: Fungal growth inhibition assay, Septoria nodorum. It counts as cell-based. How it is done:
as §1, §2, §3, §4, §5

Data set [1] is described as follows: Stability of Ia (retention of activity). It counts as physicochemical. Here is the method: Further, it is stable when subjected to direct sunlight for at least 10 hours. Ia is stable at a pH 2 for 3 days, but unstable at pH 12.
A further data set relates to Phytophthora medicaginis. The conditions noted are these: U.S. Pat. Nos. 4,877,738 and 4,878,936; cited from earlier work.

`NC(=O)NCC(NC(=O)C(O)C(O)C(N)C(O)CC(O)C(N)CO)C(N)=O` (stereo not shown) [Ia]: the “Stunt Score” value in the data set with Spodoptera exigua (Ia + alone, Bt protein None) amounted to 4.0. For the same compound, in the data set on Spodoptera exigua (regardless of the form of the pesticidal proteins), the “effect on activity of B.t. subsp. kurstaki and aizawai crystal delta-endotoxin pesticidal proteins toward Spodoptera exigua” value is listed as “potentiate”. Also, the “solubility in organic solvents” value in the data set “Solubility of Ia” (organic solvents) is recorded as “not soluble”. Besides, in “Solubility of Ia” (water), the solubility in water entry is given as “water soluble”. In addition, the “effect on fungal growth” value in the data set on Alternaria alternata (agar plates) and in the data set with Septoria nodorum (agar plates) was “inhibits growth” each time. In addition, the “concentration giving barely visible inhibition (assay sensitivity)” value is 0.05 gram of the factor per liter in the data set with Alternaria alternata (barely visible, 26° C., 2 days) and 0.05 gram of the factor per liter in the data set with Septoria nodorum (barely visible, 26° C., 2 days). In addition, the “concentration giving clear zone (assay sensitivity)” value is given as 0.1 gram of the factor per liter with Alternaria alternata (clear zone, 26° C., 2 days) and 0.1 gram of the factor per liter with Septoria nodorum (clear zone, 26° C., 2 days). The stability upon autoclaving result in data set [1] (autoclaving (>190° C.)) is “loses all activity”. The stability upon boiling entry in data set [1] (boiling for 5 minutes) is given as “stable”. For the same compound, the “time stable in direct sunlight” value in data set [1] (direct sunlight) is listed as “at least 10 hours”. The “stability to periodic acid or concentrated HCl” value in data set [1] (exposed to periodic acid or concentrated HCl) is listed as “lose all activity”. The “stability at pH 2” value in data set [1] (pH 2 for 3 days) is recorded as “stable”. Further, the “stability at pH 12” value in data set [1] (pH 12) is on record as “unstable”.

In the case of `NC(=O)NCC(NC(=O)C(O)C(O)C(N)C(O)CC(O)C(N)CO)C(N)=O` (stereo not shown) [zwittermicin A], in the data set on Phytophthora medicaginis, the “effect on growth of the plant pathogen Phytophthora medicaginis” value is given as “inhibits the growth” and the “effect on infection of alfalfa” value was “reduces the infection”.

“CryIA(c): Bacillus thuringiensis CryIA(c) delta-endotoxin protein purified from BIOBIT FC”: the “Stunt Score” value is on record as 1.0 (1.0 = 25% size of untreated control) in the data set on Spodoptera exigua (Bt protein 3 μg/ml, Ia +); 0.0 in the data set on Spodoptera exigua (Bt protein 15 μg/ml, Ia +); 4.0 in the data set with Spodoptera exigua (Bt protein 30 μg/ml, Ia −); 1.0 (1.0 = 25% size of untreated control) with Spodoptera exigua (purified truncated Bt protein OD280 0.0006, Ia +); 1.0 (1.0 = 25% size of untreated control) in the data set with Spodoptera exigua (purified truncated Bt protein OD280 0.0012, Ia +); 2.0 (2.0 = 50% size of untreated control) with Spodoptera exigua (purified truncated Bt protein OD280 0.0025, Ia +). The “Stunt Score” value in the data set with Spodoptera exigua (purified truncated Bt protein OD280 0.005, Ia +) is given as 0.0; with Spodoptera exigua (purified truncated Bt protein OD280 0.020, Ia +), 0.0. For the same compound, in the data set with Spodoptera exigua (full-length protein, equals 240 μg/ml of CryIA(c) alone), the “concentration with Ia producing the same insect mortality/stunt score as protein alone” value was found to be 0.75 µg/mL. In the data set with Spodoptera exigua (truncated protein, equals OD280 of 0.075 tested alone), the “OD280 in combination with Ia giving the same stunt score as protein alone” value was determined as 0.0006 OD280.
